From US10544103B2, “5-HT2 antagonists” (ANAMAR AB, priority 2015, dated 2020)

Biological target: T1, 5-HT2B receptor (Homo sapiens, UniProt P41595)
T1 construct: host or cells: CHO-K1
Assay: 5-HT2B receptor binding, 3H-LSD ligand displacement assay
Details: for inhibition at 0.01 µM: 0.01 uM compound; for inhibition at 0.1 µM: 0.1 uM compound; for inhibition at 1 µM: 1 uM compound; for inhibition at 10 µM: 10 uM compound; for inhibition at 0.001 µM: 0.001 uM compound
Experimental: 5-HT2B receptor binding (performed at Eurofins Panlabs Taiwan, Ltd.) to human receptor protein expressed in CHO-K1 cells was determined in a ligand displacement assay using ^3H-lysergic acid diethylamide (LSD) as radioligand and ketanserine as a standard reference compound. Data is presented as % displacement of radioligand at indicated compound concentrations, see Table 1 and Table 2.

T1 sequence (P41595 whole entry): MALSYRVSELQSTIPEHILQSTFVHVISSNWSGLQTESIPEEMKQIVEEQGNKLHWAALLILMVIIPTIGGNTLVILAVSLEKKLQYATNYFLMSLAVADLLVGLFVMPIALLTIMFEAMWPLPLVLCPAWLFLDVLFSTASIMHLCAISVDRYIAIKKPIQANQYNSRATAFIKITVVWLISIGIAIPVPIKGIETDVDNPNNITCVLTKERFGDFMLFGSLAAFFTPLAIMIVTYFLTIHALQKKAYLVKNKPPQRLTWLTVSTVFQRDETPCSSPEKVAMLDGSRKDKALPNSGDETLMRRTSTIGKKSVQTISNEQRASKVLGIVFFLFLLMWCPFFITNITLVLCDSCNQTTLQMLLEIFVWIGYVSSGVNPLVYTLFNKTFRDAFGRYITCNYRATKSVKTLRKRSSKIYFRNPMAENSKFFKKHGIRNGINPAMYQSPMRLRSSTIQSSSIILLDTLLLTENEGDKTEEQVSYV

inhibition at 10 µM	SMILES	inhibition at 0.01 µM	inhibition at 0.1 µM	inhibition at 1 µM	inhibition at 0.001 µM
	C[C@H]1CN(C(=N)N)N=C1c1cccc(Cl)c1O (single isomer, unassigned) [Example 72, (S)*-3-(3-chloro-2-hydroxyphenyl)-4-methyl-4,5-dihydro-1H-pyrazole-1-carboximidamide]	21%	69%		-1%
	C[C@H]1CN(C(=N)NCc2ccccc2)N=C1c1cccc(Cl)c1O (single isomer, unassigned) [Example 77, (S)*—N-Benzyl-3-(3-chloro-2-hydroxyphenyl)-4-methyl-4,5-dihydro-1H-pyrazole-1-carboximidamide]	28%	88%		2%
101%	N=C(N)N1CCC(c2ccccc2Br)=N1 [Example 4, 3-(2-Bromophenyl)-4,5-dihydro-1H-pyrazole-1-carboximidamide]			89%	
100%	N=C(N)N1CCC(c2ccccc2Cl)=N1 [Example 5, 3-(2-Chlorophenyl)-4,5-dihydro-1H-pyrazole-1-carboximidamide]			95%	
99%	Cc1ccccc1C1=NN(C(=N)N)CC1 [Example 6, 3-(2-Methylphenyl)-4,5-dihydro-1H-pyrazole-1-carboximidamide]			89%	
94%	N=C(N)N1CCC(c2cc(F)ccc2F)=N1 [Example 7, 3-(2,5-Difluorophenyl)-4,5-dihydro-1H-pyrazole-1-carboximidamide]			47%	
	CC(C)c1ccccc1C1=NN(C(=N)N)CC1 [Example 8, 3-(2-Isopropylphenyl)-4,5-dihydro-1H-pyrazole-1-carboximidamide]		80%	95%	
	N=C(N)N1CCC(c2cccc3ccsc23)=N1 [Example 10, 3-(Benzo[b]thiophen-7-yl)-4,5-dihydro-1H-pyrazole-1-carboximidamide]		75%	95%	
	N=C(N)N1CCC(c2ccccc2F)=N1 [Example 11, 3-(2-Fluorophenyl)-4,5-dihydro-1H-pyrazole-1-carboximidamide]		10%	53%	
	N=C(N)N1CCC(c2ccc3ccccc3c2)=N1 [Example 12, 3-(Naphthalen-2-yl)-4,5-dihydro-1H-pyrazole-1-carboximidamide, reference compound]		18%	76%	
	N=C(N)N1CCC(c2ccccc2C(F)(F)F)=N1 [Example 13, 3-(2-(Trifluoromethyl)phenyl)-4,5-dihydro-1H-pyrazole-1-carboximidamide]		34%	82%	
	N=C(N)N1CCC(c2coc3ccccc23)=N1 [Example 14, 3-(Benzofuran-3-yl)-4,5-dihydro-1H-pyrazole-1-carboximidamide]		40%	88%	
56%	COc1ccc(C2=NN(C(=N)N)CC2)cc1 [Example 15, 3-(4-Methoxyphenyl)-4,5-dihydro-1H-pyrazole-1-carboximidamide, reference compound]			13%	
42%	COc1ccc(C2=NN(C(=N)N)CC2)cc1OC [Example 16, 3-(3,4-Dimethoxyphenyl)-4,5-dihydro-1H-pyrazole-1-carboximidamide, reference compound]			6%	
101%	COc1ccccc1C1=NN(C(=N)N)CC1C (centres unmarked) [Example 18, 3-(2-Methoxyphenyl)-4-methyl-4,5-dihydro-1H-pyrazole-1-carboximidamide]			89%	
	CNC(=N)N1CCC(c2ccccc2Cl)=N1 [Example 19, 3-(2-Chlorophenyl)-N-methyl-4,5-dihydro-1H-pyrazole-1-carboximidamide]		34%	79%	
	CNC(=N)N1CCC(c2ccccc2O)=N1 [Example 20, 3-(2-Hydroxyphenyl)-N-methyl-4,5-dihydro-1H-pyrazole-1-carboximidamide]		41%	89%	
	CC1CC(c2cccc3ccccc23)=NN1C(=N)N (centres unmarked) [Example 23, 5-methyl-3-(naphthalen-1-yl)-4,5-dihydro-1H-pyrazole-1-carboximidamide]		68%	97%	
	CC1CN(C(=N)N)N=C1c1cccc2ccccc12 (centres unmarked) [Example 24, 4-Methyl-3-(naphthalen-1-yl)-4,5-dihydro-1H-pyrazole-1-carboximidamide]	39%	86%	102%	

inhibition at 10 µM	SMILES	inhibition at 0.01 µM	inhibition at 0.1 µM	inhibition at 1 µM	inhibition at 0.001 µM
	CC1CC(c2ccccc2Cl)=NN1C(=N)N (centres unmarked) [Example 25, 3-(2-Chlorophenyl)-5-methyl-4,5-dihydro-1H-pyrazole-1-carboximidamide]		54%	91%	
	CC1CC(c2c(F)cccc2F)=NN1C(=N)N (centres unmarked) [Example 26, 3-(2,6-Difluorophenyl)-5-methyl-4,5-dihydro-1H-pyrazole-1-carboximidamide]		7%	55%	
	CCC1CC(c2ccccc2Cl)=NN1C(=N)N (centres unmarked) [Example 27, 3-(2-Chlorophenyl)-5-ethyl-4,5-dihydro-1H-pyrazole-1-carboximidamide]		25%	76%	
	Cc1c(C2=NN(C(=N)N)C(C)C2)oc2ccccc12 (centres unmarked) [Example 28, 5-Methyl-3-(3-methylbenzofuran-2-yl)-4,5-dihydro-1H-pyrazole-1-carboximidamide]		63%	95%	
	Cc1c(C2=NN(C(=N)N)C(C)C2)sc2ccccc12 (centres unmarked) [Example 29, 5-Methyl-3-(3-methylbenzo[b]thiophen-2-yl)-4,5-dihydro-1H-pyrazole-1-carboximidamide]		69%	97%	
	N=C(N)N1N=C(c2ccccc2Cl)C2CCCC21 (centres unmarked) [Example 30, 3-(2-Chlorophenyl)-4,5,6,6a-tetrahydrocyclopenta[c]pyrazole-1(3aH)-carboximidamide]		44%	88%	
	N=C(N)N1CCC(c2ccccc2N)=N1 [Example 31, 3-(2-Aminophenyl)-4,5-dihydro-1H-pyrazole-1-carboximidamide]		21%	69%	
	CC1(C)CN(C(=N)N)N=C1c1ccccc1O [Example 32, 3-(2-Hydroxyphenyl)-4,4-dimethyl-4,5-dihydro-1H-pyrazole-1-carboximidamide]		28%	79%	
	COc1cccc(Cl)c1C1=NN(C(=N)N)CC1 [Example 33, 3-(2-Chloro-6-methoxyphenyl)-4,5-dihydro-1H-pyrazole-1-carboximidamide]		5%	37%	
	N=C(N)N1CCC(c2c(O)cccc2Cl)=N1 [Example 34, 3-(2-Chloro-6-hydroxyphenyl)-4,5-dihydro-1H-pyrazole-1-carboximidamide]		23%	52%	
	CNC(=N)N1CC(C)C(c2ccccc2O)=N1 (centres unmarked) [Example 40, 3-(2-Hydroxyphenyl)-N,4-dimethyl-4,5-dihydro-1H-pyrazole-1-carboximidamide]	42%	92%	99%	1%
	CC1CN(C(=N)NCc2ccccc2)N=C1c1ccccc1O (centres unmarked) [Example 42, N-Benzyl-3-(2-hydroxyphenyl)-4-methyl-4,5-dihydro-1H-pyrazole-1-carboximidamide]	97%	98%	99%	49%
	CC1CN(C(=N)NO)N=C1c1ccccc1O (centres unmarked) [Example 44, N-Hydroxy-3-(2-hydroxyphenyl)-4-methyl-4,5-dihydro-1H-pyrazole-1-carboximidamide]	30%	85%	94%	12%
	COc1ccc(F)cc1C1=NN(C(=N)N)CC1C (centres unmarked) [Example 45, 3-(5-Fluoro-2-methoxyphenyl)-4-methyl-4,5-dihydro-1H-pyrazole-1-carboximidamide]	26%	54%	86%	
	CC1CN(C(=N)N)N=C1c1cc(F)ccc1O (centres unmarked) [Example 46, 3-(5-Fluoro-2-hydroxyphenyl)-4-methyl-4,5-dihydro-1H-pyrazole-1-carboximidamide]	22%	54%	89%	
	COc1c(F)cccc1C1=NN(C(=N)N)CC1C (centres unmarked) [Example 47, 3-(3-Fluoro-2-methoxyphenyl)-4-methyl-4,5-dihydro-1H-pyrazole-1-carboximidamide]	15%	68%	92%	
	CC1CN(C(=N)N)N=C1c1cccc(F)c1O (centres unmarked) [Example 48, 3-(3-Fluoro-2-hydroxyphenyl)-4-methyl-4,5-dihydro-1H-pyrazole-1-carboximidamide]	54%	85%	95%	
	COc1cc(F)ccc1C1=NN(C(=N)N)CC1C (centres unmarked) [Example 49, 3-(4-Fluoro-2-methoxyphenyl)-4-methyl-4,5-dihydro-1H-pyrazole-1-carboximidamide]	11%	28%	78%	
	CC1CN(C(=N)N)N=C1c1ccc(F)cc1O (centres unmarked) [Example 50, 3-(4-Fluoro-2-hydroxyphenyl)-4-methyl-4,5-dihydro-1H-pyrazole-1-carboximidamide]	42%	87%	96%	

SMILES	inhibition at 10 µM	inhibition at 0.01 µM	inhibition at 0.1 µM	inhibition at 1 µM	inhibition at 0.001 µM
C[C@H]1CN(C(=N)N)N=C1c1ccccc1O (single isomer, unassigned) [Example 37]	99%	-1%	35%	72%	
